Assay results reported in US4552843A, “Process for producing an acidic polycyclic ether antibiotic by cultivation of a novel strain of Streptomyces endus subspecies aureus” (Pfizer Inc., priority 1984, dated 1985).

How the values were obtained:
rumen fluid = assay: in vitro rumen technique, propionic acid production; design: species or system calf
Experimental: The value of animal feeds generally has been determined directly by feeding the animal. British Pat. No. 1,197,826 details an in vitro rumen technique whereby the changes occurring in feeds brought about by microorganisms are measured more readily and with great accuracy in the evaluation of animal feeds. This technique involves the use of an apparatus in which the digestive processes of the animals are conducted and studied in vitro. The animal feeds, rumen inoculum and various growth promotants are introduced into and withdrawn from a laboratory unit under carefully controlled conditions and the changes taken place are studied critically and progressively during the consumption of the feed by the microorganisms. […] The change in propionic acid content is expressed as percent of the propionic acid content found in the control rumen fluid. Long term in vivo feeding studies are used to show a reliable correlation between propionic acid increase in the rumen fluid and improved animal performance.
Rumen fluid is collected from a fistulated calf which is fed on a commercial fattening ration plus hay. The rumen fluid is immediately filtered through cheese cloth, and 10 ml added to a 50 ml conical flask containing 400 mg of standard substrate (68% corn starch +17% cellulose +15% extracted soybean meal), 10 ml of a pH 6.8 buffer and the test compound. The flasks are gassed with oxygen free nitrogen for about two minutes, and incubated in a shaking water bath at 39° C. for about 16 hours. All tests are conducted in triplicate.
After incubation, 5 ml of the sample is mixed with 1 ml of 25% metaphosphoric acid. After 10 minutes 0.25 ml of formic acid is added and the mixture centrifuged at 1500 RPM for 10 minutes. Samples are then analyzed by gas-liquid chromatography by the method of D. W. Kellog, J. Dairy Science, 52, 1690 (1969). Peak heights for acetic, propionic and butyric acids are determined for samples from untreated and treated incubation flasks.

Eimeria tenella = assay: efficacy against coccidial infections in chickens (Table II); type: in vivo; settings: for Ratio: lesion score treated / infected control; for % Weight Gain / Average Degree of Infection: chicks; for Average Degree of Infection: lesion score 0 to 4, six days
Experimental: (§1) Efficacy data for Antibiotic CP-63,517 and its salts against coccidial infections in chickens was obtained in the following fashion. Groups of 3-5 ten-day old SPF white leghorn cockerel chicks were fed a mash diet containing Antibiotic CP-63,517, its sodium and/or potassium salt, or the known agents Monensin or Stenorol uniformly dispersed therein. After being on this ration for 24 hours each chick was inoculated per os with oocysts of the particular species of Eimeria being tested. Other groups of 3-5 ten-day old chicks were fed a similar mash diet free of any test compound. They were also infected after 24 hours and served as infected controls. Yet another group of 3-5 ten-day old chicks were fed the mash diet free of any test compound and were not infected with coccidia. These served as normal controls. The results of treatment were evaluated after five days in the case of E. acervulina, and six days for other challenges.
(§2) ^1 The criteria used to measure anticoccidial activity consisted of
(§3) lesion scores of 0 to 4 for Eimeria tenella after J. E. Lynch, "A New
(§4) Method for the Primary Evaluation of Anticoccidial Activity", Am. J. Vet.
(§5) modification of the scoring system devised by J. Johnson and W. H. Reid,
(§6) "Anticoccidial Drugs. Lesion Scoring Techniques in Battery and Floor Pen
(§7) Experiments in Chicks", Exp. Parasit. 28: 30-36 (1970). A constant ratio
(§8) was established by dividing the lesion score of each treated group by the
(§9) lesion score of the infected control.

Eimeria acervulina = assay: as above; type: in vivo; settings: 9 ppm in diet; for Ratio: lesion score treated / infected control; for % Weight Gain / Average Degree of Infection: chicks; for Average Degree of Infection: lesion score 0 to 3, five days
Experimental: as §1, §2, §3, §4, §5, §6, §7, §8, §9

[1] = 53 ppm in diet, replicate (in parentheses)
[2] = 120 ppm in diet, replicate (in parentheses)
[3] = 0.75 ppm in diet, replicate (in parentheses)
[4] = 3 ppm in diet, replicate (in parentheses)
[5] = 9 ppm in diet, replicate (in parentheses)

In the case of `CC[C@@]1([C@@H]2O[C@@H]([C@H]3O[C@@](O)(CO)[C@H](C)C[C@@H]3C)C[C@@H]2C)CC[C@H]([C@]2(C)CC[C@]3(C[C@H](O)[C@@H](C)[C@@H]([C@@H](C)[C@@H](OC)[C@H](C)C(=O)O)O3)O2)O1` [Monensin], the “increase in production of propionic acid over control” value (rumen fluid; 10 micrograms per milliliter (10 μg/ml), comparison with Monensin) is reported as “about 20%”, the Ratio (Eimeria tenella; 53 ppm in diet) is reported as 0.69 and the Ratio (Eimeria tenella; [1]) is reported as 0.54. The Ratio (Eimeria tenella; 120 ppm in diet) was 0.09, the Ratio (Eimeria tenella; [2]) was 0.32 and the “% Weight Gain” value (Eimeria tenella; 53 ppm in diet) was 92%. The “Average Degree of Infection” value (Eimeria tenella; 53 ppm in diet) was 2.3, the “Average Degree of Infection” value (Eimeria tenella; [1]) was 1.7 and the “% Weight Gain” value (Eimeria tenella; [1]) was 99%. The “% Weight Gain” value (Eimeria tenella; 120 ppm in diet) was 71%, the “Average Degree of Infection” value (Eimeria tenella; 120 ppm in diet) was 0.3 and the “Average Degree of Infection” value (Eimeria tenella; [2]) was 1.0. The “% Weight Gain” value (Eimeria tenella; [2]) was 68%.

`CC[C@@H](C(=O)[C@@H](C)[C@@H](O)[C@H](C)[C@@H]1O[C@@H]([C@@H](CC)C(=O)O)CC[C@@H]1C)[C@H]1O[C@]2(C=C[C@@H](O)[C@]3(CC[C@@](C)([C@H]4CC[C@](O)(CC)[C@H](C)O4)O3)O2)[C@H](C)C[C@@H]1C` [Salinomycin, reference compound] was tested, and the “increase in propionic acid” value (rumen fluid; 10 μg/ml, comparison with Salinomycin) was “about 65%”.

With `O=C(CC1NCCCC1O)Cn1cnc2cc(Br)c(Cl)cc2c1=O` (centres unmarked) [Stenorol] the Ratio (Eimeria acervulina) was 0.0, the Ratio (Eimeria acervulina; replicate (in parentheses)) was 0.0 and the “% Weight Gain” value (Eimeria acervulina) was 48%. For the same compound, the “Average Degree of Infection” value (Eimeria acervulina) was 0.0, the “Average Degree of Infection” value (Eimeria acervulina; replicate (in parentheses)) was 0.0 and the “% Weight Gain” value (Eimeria acervulina; replicate (in parentheses)) was 51%. For the same compound, the Ratio (Eimeria tenella; 0.75 ppm in diet) was 0.51, the Ratio (Eimeria tenella; [3]) was 0.73 and the Ratio (Eimeria tenella; 3 ppm in diet) was 0.0. For the same compound, the Ratio (Eimeria tenella; [4]) was 0.0, the Ratio (Eimeria tenella; 9 ppm in diet) was 0.0 and the Ratio (Eimeria tenella; [5]) was 0.0. For the same compound, the “% Weight Gain” value (Eimeria tenella; 0.75 ppm in diet) was 66%, the “Average Degree of Infection” value (Eimeria tenella; 0.75 ppm in diet) was 1.7 and the “Average Degree of Infection” value (Eimeria tenella; [3]) was 2.3. The “% Weight Gain” value (Eimeria tenella; [3]) was 90%, the “% Weight Gain” value (Eimeria tenella; 3 ppm in diet) was 86% and the “Average Degree of Infection” value (Eimeria tenella; 3 ppm in diet) was 0.0. The “Average Degree of Infection” value (Eimeria tenella; [4]) was 0.0, the “% Weight Gain” value (Eimeria tenella; [4]) was 103% and the “% Weight Gain” value (Eimeria tenella; 9 ppm in diet) was 63%. The “Average Degree of Infection” value (Eimeria tenella; 9 ppm in diet) was 0.0, the “Average Degree of Infection” value (Eimeria tenella; [5]) was 0.0 and the “% Weight Gain” value (Eimeria tenella; [5]) was 77%.
